Activity calls are given as the source filed them. The calls are words filed in the database; no cut-off is given here.
Experiments:
[1] = AUC (0 to infinity) in C57/BI mouse at 10 mg/kg, po measured upto 24 hrs by LC-MS/MS analysis; assay type: ADME, organism-based; set-up: time < 24 hrs, dose 10 mg/kg, route po; settings: in vivo
[2] = AUC (0 to infinity) in Wistar Han rat at 10 mg/kg, po measured upto 24 hrs by LC-MS/MS analysis; assay type: ADME, organism-based; set-up: dose 10 mg/kg, time < 24 hrs, route po; settings: in vivo
[3] = Half life in C57/BI mouse at 10 mg/kg, po measured upto 24 hrs by LC-MS/MS analysis; assay type: ADME, organism-based; settings: in vivo
[4] = Oral bioavailability in C57/BI mouse at 10 mg/kg measured upto 24 hrs by LC-MS/MS analysis; assay type: ADME, organism-based; settings: in vivo
[5] = Oral bioavailability in Wistar Han rat at 10 mg/kg measured upto 24 hrs by LC-MS/MS analysis; assay type: ADME, organism-based; settings: in vivo
[6] = biological target: T1, Protein deacetylase HDAC6 (Homo sapiens, UniProt Q9UBN7); test: Inhibition of HDAC6 (unknown origin) incubated for 30 mins
T1 sequence (Q9UBN7 whole entry): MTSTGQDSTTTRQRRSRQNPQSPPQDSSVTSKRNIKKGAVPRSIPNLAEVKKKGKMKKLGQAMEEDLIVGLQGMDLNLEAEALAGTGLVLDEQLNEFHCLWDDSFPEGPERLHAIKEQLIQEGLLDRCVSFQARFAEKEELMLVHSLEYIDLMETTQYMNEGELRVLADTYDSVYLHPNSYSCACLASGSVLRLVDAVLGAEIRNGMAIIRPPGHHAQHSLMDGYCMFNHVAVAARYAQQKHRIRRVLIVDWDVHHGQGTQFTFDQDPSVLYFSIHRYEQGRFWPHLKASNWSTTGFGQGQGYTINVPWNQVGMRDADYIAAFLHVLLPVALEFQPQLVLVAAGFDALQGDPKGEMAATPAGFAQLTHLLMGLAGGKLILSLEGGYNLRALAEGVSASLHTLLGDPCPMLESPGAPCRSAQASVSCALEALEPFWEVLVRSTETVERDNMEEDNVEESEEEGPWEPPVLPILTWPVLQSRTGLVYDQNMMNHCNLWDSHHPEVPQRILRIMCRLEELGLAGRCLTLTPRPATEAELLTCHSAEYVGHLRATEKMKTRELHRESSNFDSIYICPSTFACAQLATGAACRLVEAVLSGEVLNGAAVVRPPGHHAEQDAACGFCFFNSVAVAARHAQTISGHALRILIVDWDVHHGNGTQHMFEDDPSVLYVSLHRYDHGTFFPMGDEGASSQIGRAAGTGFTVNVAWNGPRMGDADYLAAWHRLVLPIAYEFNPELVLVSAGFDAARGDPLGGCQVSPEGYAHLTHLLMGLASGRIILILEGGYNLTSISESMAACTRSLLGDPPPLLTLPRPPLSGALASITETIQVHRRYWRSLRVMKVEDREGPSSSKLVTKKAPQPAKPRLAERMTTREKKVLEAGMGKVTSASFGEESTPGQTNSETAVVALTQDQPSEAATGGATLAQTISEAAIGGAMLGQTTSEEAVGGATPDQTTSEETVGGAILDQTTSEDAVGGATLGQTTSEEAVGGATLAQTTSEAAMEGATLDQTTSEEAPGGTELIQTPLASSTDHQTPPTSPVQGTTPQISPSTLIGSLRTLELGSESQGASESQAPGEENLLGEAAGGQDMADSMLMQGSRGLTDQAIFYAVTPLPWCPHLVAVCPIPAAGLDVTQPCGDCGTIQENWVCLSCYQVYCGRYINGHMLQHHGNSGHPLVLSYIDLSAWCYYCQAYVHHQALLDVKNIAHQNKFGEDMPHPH

[7] = biological target: T1, Protein deacetylase HDAC6; test: Inhibition of HDAC6 (unknown origin) incubated for 20 hrs
THP-1 = test: Cytotoxicity against human THP-1 cells assessed as reduction in cell viability measured upto 250 uM by alamar blue staining based assay; assay type: functional
[8] = biological target: cAMP and cAMP-inhibited cGMP 3',5'-cyclic phosphodiesterase 10A (Homo sapiens) (UniProt Q9Y233); test: Inhibition of PDE10A2 (unknown origin) at 91 uM relative to control
Chain of cAMP and cAMP-inhibited cGMP 3',5'-cyclic phosphodiesterase 10A (Homo sapiens) (Q9Y233 whole entry): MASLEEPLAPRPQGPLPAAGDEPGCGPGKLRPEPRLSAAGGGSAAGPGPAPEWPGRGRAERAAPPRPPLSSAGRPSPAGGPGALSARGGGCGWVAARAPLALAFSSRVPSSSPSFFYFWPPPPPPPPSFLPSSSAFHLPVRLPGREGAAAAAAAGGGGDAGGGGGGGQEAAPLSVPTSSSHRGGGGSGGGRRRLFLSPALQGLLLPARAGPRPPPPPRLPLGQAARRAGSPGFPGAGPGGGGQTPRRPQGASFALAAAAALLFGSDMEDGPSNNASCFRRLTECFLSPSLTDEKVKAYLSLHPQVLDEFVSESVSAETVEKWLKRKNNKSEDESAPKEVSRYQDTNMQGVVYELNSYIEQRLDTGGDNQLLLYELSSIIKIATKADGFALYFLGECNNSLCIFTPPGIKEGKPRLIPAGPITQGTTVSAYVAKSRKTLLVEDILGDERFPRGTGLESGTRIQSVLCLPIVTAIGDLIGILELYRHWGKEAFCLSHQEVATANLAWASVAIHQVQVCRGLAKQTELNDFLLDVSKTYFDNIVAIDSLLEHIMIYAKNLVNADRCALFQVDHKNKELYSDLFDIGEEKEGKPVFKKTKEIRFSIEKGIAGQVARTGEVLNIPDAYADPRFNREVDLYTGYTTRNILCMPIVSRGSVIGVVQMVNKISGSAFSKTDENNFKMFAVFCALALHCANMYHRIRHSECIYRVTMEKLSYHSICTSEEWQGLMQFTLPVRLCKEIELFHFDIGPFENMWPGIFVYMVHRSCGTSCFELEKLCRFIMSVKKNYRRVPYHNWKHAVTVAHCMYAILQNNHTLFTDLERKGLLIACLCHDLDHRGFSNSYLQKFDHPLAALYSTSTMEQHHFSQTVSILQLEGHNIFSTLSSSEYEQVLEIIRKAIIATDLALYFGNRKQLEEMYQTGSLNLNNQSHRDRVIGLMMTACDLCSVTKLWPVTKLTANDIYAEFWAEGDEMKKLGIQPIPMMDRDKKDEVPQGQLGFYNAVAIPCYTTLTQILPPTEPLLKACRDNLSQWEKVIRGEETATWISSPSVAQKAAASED

[9] = biological target: GABA-A receptor; anion channel (Homo sapiens) (UniProt P14867+P47870+P18507+P28472+P48169+Q99928+Q9UN88+P34903+O00591+O14764+Q8N1C3+P18505+P78334+P47869+P31644+Q16445); test: Inhibition of GABAA (unknown origin) at 34 uM relative to control; assay type: protein-complex assay
[10] = Clearance in C57/BI mouse at 0.5 mg/kg, iv measured upto 24 hrs by LC-MS/MS analysis; assay type: ADME, organism-based; settings: in vivo
[11] = AUC (0 to infinity) in C57/BI mouse at 1 mg/kg, po measured upto 24 hrs by LC-MS/MS analysis; assay type: ADME, organism-based; set-up: time < 24 hrs, dose 1 mg/kg, route po; settings: in vivo
[12] = Half life in C57/BI mouse at 0.5 mg/kg, iv measured upto 24 hrs by LC-MS/MS analysis; assay type: ADME, organism-based; settings: in vivo
[13] = Half life in Wistar Han rat at 1 mg/kg, po measured upto 24 hrs by LC-MS/MS analysis; assay type: ADME, organism-based; settings: in vivo
[14] = Oral bioavailability in C57/BI mouse at 1 mg/kg measured upto 24 hrs by LC-MS/MS analysis; assay type: ADME, organism-based; settings: in vivo
[15] = Oral bioavailability in Wistar Han rat at 1 mg/kg measured upto 24 hrs by LC-MS/MS analysis; assay type: ADME, organism-based; settings: in vivo
[16] = tested on: Sodium-dependent noradrenaline transporter; test: Inhibition of NET (unknown origin) at 49 uM relative to control; settings: Homo sapiens

| Structure (SMILES) | AUC(0-inf) [1] | AUC(0-inf) [2] | half-life [3] | bioavailability [4] | bioavailability [5] | IC50 [6] | IC50 [7] | Activity (THP-1) | inhibition [8] | inhibition [9] | clearance [10] | AUC(0-inf) [11] | half-life [12] | half-life [13] | bioavailability [14] | bioavailability [15] | inhibition [16] |
| --- | --- | --- | --- | --- | --- | --- | --- | --- | --- | --- | --- | --- | --- | --- | --- | --- | --- |
| O=C(NO)c1cnc(NC2(c3ccccc3)CCC(F)(F)CC2)nc1 | 0.4 µM·h | 0.05 µM·h | 1.7 h | 12% | 19% | – | – | – | – | – | – | – | – | – | – | – | – |
| FC(F)c1nnc(-c2ccc(Cn3nnc(-c4ccccn4)n3)nc2)o1 | – | – | – | – | – | 27 nM | 1 nM | inactive | Active | Active | 2.4 mL/min/kg | 21 µM·h | 4.7 h | 10 h | 110% | 100% | Active |
